Assay [1] can be described thus: Compound was tested in vitro for inhibition of gram negative organisms. Type of assay: functional. Particulars: Bacteria.
The nature of assay [2]: Compound was tested in vitro for inhibition of gram positive organisms. The format is functional. Particulars: Bacteria.
The subject of assay [3] is Bacillus subtilis. The assay is described as follows: Compound was tested in vitro for antibacterial activity against Bacillus subtilis. Type of assay: functional.
In assay [4] the test system is Enterococcus faecalis. The assay is described as follows: Compound was tested in vitro for antibacterial activity against Enterococcus faecalis. Type of assay: functional.
For assay [5], the system named is Escherichia coli. Briefly: Compound was tested in vitro for antibacterial activity against Escherichia coli. The format is functional.
Assay [6] has as its system Enterobacter. Briefly: Compound was tested in vitro for antibacterial activity against Enterobacter. The format is functional.
The subject of assay [7] is Klebsiella. Briefly: Compound was tested in vitro for antibacterial activity against Klebsiella. The format is functional.
In assay [8] the test system is Morganella. Briefly: Compound was tested in vitro for antibacterial activity against Morganella. The format is functional.
Assay [9] concerns Providencia. The assay is described as follows: Compound was tested in vitro for antibacterial activity against Providencia. Type of assay: functional.
Assay [10] has as its system Salmonella. Briefly: Compound was tested in vitro for antibacterial activity against Salmonella. Type of assay: functional.
Assay [11] relates to Micrococcus luteus. Briefly: Compound was tested in vitro for antibacterial activity against Sarcina lutea. Type of assay: functional, sarcinea lutea.
Assay [12] concerns Serratia. The assay is described as follows: Compound was tested in vitro for antibacterial activity against Serratia. The format is functional.
Assay [13] concerns Staphylococcus. The assay is described as follows: Compound was tested in vitro for antibacterial activity against Staphylococcus. The format is functional.

Regarding `C[C@@H](O)[C@H]1C(=O)N2C(C(=O)[O-])=C(SCCOC(N)=O)S[C@H]12.[Na+]`, the MIC is 0.5 µg/mL in [1] and 0.2 µg/mL in [2].

On to `C[C@@H](O)[C@H]1C(=O)N2C(C(=O)[O-])=C(SCCN)S[C@H]12.[Na+]`, for which the MIC in assay [1] came to 3.6 µg/mL; in assay [2] it was 0.2 µg/mL.

Turning to `CCCOC1=C(C(=O)[O-])N2C(=O)[C@H]([C@@H](C)O)[C@H]2S1.[Na+]`, the MIC was 1 µg/mL in assay [3]; 32 µg/mL in assay [4]; 14.4 µg/mL in [5]; at least 73.5 µg/mL in assay [6]; 31.6 µg/mL in [1]; 2.44 µg/mL in assay [2]. Besides, the minimum inhibitory concentration (MIC) in [7] is 20.2 µg/mL; in assay [8], 64 µg/mL; in [9], at least 64 µg/mL; in assay [10] it was 10.6 µg/mL; in assay [11], 1 µg/mL; in assay [12], at least 87.1 µg/mL. Inhibition of growth in assay [13] (MIC) required 1.66 µg/mL.

Consider `C[C@@H](O)[C@H]1C(=O)N2C(C(=O)[O-])=C(OCCOC(N)=O)S[C@H]12.[Na+]`, for which the MIC in [3] was 1 µg/mL; in [4] it was 64 µg/mL; in [5] it was 6.62 µg/mL; in assay [6], 10.1 µg/mL; in assay [1] it was 8.3 µg/mL; in assay [2] it was 2.07 µg/mL. Besides, the MIC in [7] turned out to be 4.92 µg/mL; in assay [8], 16 µg/mL; in assay [9], 27.9 µg/mL; in [10], 4 µg/mL; in assay [11], 0.5 µg/mL; in assay [12], 16 µg/mL. Besides, it took 1.57 µg/mL to inhibit growth in assay [13] (MIC).

In the case of `CCCCOC1=C(C(=O)[O-])N2C(=O)[C@H]([C@@H](C)O)[C@H]2S1.[Na+]`, the MIC was 1 µg/mL in [3]; 32 µg/mL in assay [4]; at least 25.9 µg/mL in assay [5]; at least 128 µg/mL in assay [6]; 53 µg/mL in assay [1]; 2.26 µg/mL in [2]. In addition, the MIC in assay [7] was at least 32 µg/mL; in assay [8], at least 90.5 µg/mL; in assay [9] it was at least 80.6 µg/mL; in [10] it was at least 36.8 µg/mL; in [11] it was 1 µg/mL; in assay [12], at least 128 µg/mL. 1.51 µg/mL was the least that counted as inhibitory in [13] (MIC).

Regarding `CCSC1=C(C(=O)[O-])N2C(=O)[C@H]([C@@H](C)O)[C@H]2S1.[Na+]`, the MIC in assay [1] was found to be 0.7 µg/mL; in assay [2], 0.1 µg/mL.

With `CCOC1=C(C(=O)[O-])N2C(=O)[C@H]([C@@H](C)O)[C@H]2S1.[Na+]`, the minimal inhibitory concentration (MIC) is 1 µg/mL in [3]; 64 µg/mL in [4]; 6.82 µg/mL in assay [5]; at least 24.2 µg/mL in assay [6]; 12.1 µg/mL in assay [1]; 2.8 µg/mL in assay [2]. Also, the minimum inhibitory concentration (MIC) is 5.04 µg/mL in [7]; 45.3 µg/mL in [8]; 39.4 µg/mL in assay [9]; 4.6 µg/mL in [10]; 1 µg/mL in assay [11]; at least 22.6 µg/mL in [12]. For the same molecule, the MIC in assay [13] is 3.12 µg/mL.

Consider `C[C@@H](O)[C@H]1C(=O)N2C(C(=O)[O-])=C(OCCN)S[C@H]12.[Na+]`, for which the MIC in assay [3] was 8 µg/mL; in assay [4], 45.3 µg/mL; in [5] it was at least 128 µg/mL; in [6] it was at least 128 µg/mL; in [1] it was at least 128 µg/mL; in assay [2], 27.3 µg/mL. Moreover, the MIC was at least 128 µg/mL in assay [7]; at least 128 µg/mL in assay [8]; at least 128 µg/mL in assay [9]; at least 128 µg/mL in [10]; 32 µg/mL in assay [11]; at least 128 µg/mL in assay [12]. Inhibition of growth in assay [13] (MIC) required 27.4 µg/mL.

For the molecule `COC1=C(C(=O)[O-])N2C(=O)[C@H]([C@@H](C)O)[C@H]2S1.[Na+]`, the MIC in assay [3] stood at 1.41 µg/mL; in assay [4], 32 µg/mL; in [5], 10.4 µg/mL; in [6], 24.2 µg/mL; in assay [1], 16.6 µg/mL; in [2], 3.2 µg/mL. The minimal inhibitory concentration (MIC) in [7] is 8.98 µg/mL; in [8], 45.3 µg/mL; in assay [9], 39.4 µg/mL; in [10] it was 6.96 µg/mL; in assay [11] it was 2 µg/mL; in [12], 29.6 µg/mL. In assay [13], this molecule displayed an MIC of 1.51 µg/mL.

What is called MIC is the lowest concentration that inhibits growth of the organism.

The values above are taken from ChEMBL document CHEMBL1130611, “Synthesis and antibacterial activity of 2-alkoxy penems” (1998).
